# Experimental data taken from patent US10322110B2, “Imidazole-based antimicrobial agents” (priority 2014, dated 2019).
# Where two headings read alike, the source gives them in different places.
# Experiments:
# Assay type in all cases: cell-based
# [1] = system: Staphylococcus aureus MRSA (COL); assay: broth microdilution MIC assay, Staphylococcus aureus MRSA (COL); settings: 24 h; for Antibacterial activity Staphylococcus aureus (MRSA): MIC100 class score, broth microdilution; for MIC: Staphylococcus aureus, MRSA, read-out: Antibacterial activity Staphylococcus aureus (MRSA)
# [2] = system: Staphylococcus aureus MSSA (Newman); assay: broth microdilution MIC assay, Staphylococcus aureus MSSA (Newman); settings: for MIC: Staphylococcus aureus
# [3] = system: Streptococcus pneumoniae (Chester, ATCC49619); assay: broth microdilution MIC assay, Streptococcus pneumoniae; settings: MIC100 class score, 24 h
# [4] = 24 h, read-out: Antibacterial activity Staphylococcus aureus (MSSA)
Structure (SMILES),"MIC [2, 4] [µg/mL]",MIC [1] [µg/mL],Antibacterial activity Streptococcus pneumoniae [3],also measured
CCCc1nc(-c2ccc(-c3ccccc3N(C)C)o2)[nH]c1C [Compound 98],,,,Antibacterial activity Staphylococcus aureus (MRSA) [1]: 3 (MIC100 of 3-10 μg/ml)
Cc1[nH]c(-c2cnn(-c3ccc(F)cc3)c2)nc1-c1ccccc1 [Compound 166],20 to 50,20 to 50,,
Cc1nc(-c2ccc(-c3ccc(F)cc3F)o2)[nH]c1-c1ccccc1 [Compound 147],1 to 3,1 to 3,,
Cc1[nH]c(-c2ccc(-c3cccc(Cl)c3)s2)nc1-c1ccccc1 [Compound 12],,,3 (MIC100 of 2-5 μg/ml),
Cc1[nH]c(-c2ccc(-c3ccccc3)s2)nc1-c1ccccc1 [Compound 74],,,3 (MIC100 of 2-5 μg/ml),
Cc1nc(-c2ccc(-c3cccc4cc[nH]c34)o2)[nH]c1-c1ccccc1 [Compound 161],3 to 10,1 to 3,,
CCCc1[nH]c(-c2ccc(-c3ccccc3C(F)(F)F)o2)nc1C [Compound 101],,,3 (MIC100 of 2-5 μg/ml),
Cc1[nH]c(-c2ccc(-c3ccccc3C(F)(F)F)o2)nc1-c1cccc(Cl)c1 [Compound 22],,,3 (MIC100 of 2-5 μg/ml),"Antibacterial activity Staphylococcus aureus (MSSA) ([2]; MIC100 class score, broth microdilution, 24 h): 2 (MIC100 of 11-201 μg/ml); MIC ([2]; read-out: Antibacterial activity MSSA (Staphylococcus aureus MSSA)): 11 to 201 µg/mL"
COc1ccc(-c2ccc(-c3nc(C)c(-c4ccc(O)cc4)[nH]3)o2)cc1 [Compound 79],,,3 (MIC100 of 2-5 μg/ml),
COc1cccc(-c2nc(-c3nc(-c4ccccc4)c(C)[nH]3)cs2)c1 [Compound 116],,,3 (MIC100 of 2-5 μg/ml),
CCCc1nc(-c2coc(-c3ccccc3C(F)(F)F)c2)[nH]c1C [Compound 112],,,,Antibacterial activity Staphylococcus aureus (MRSA) [1]: 3 (MIC100 of 3-10 μg/ml)
CCCc1[nH]c(-c2ccc(-c3ccccc3)o2)nc1C [Compound 94],,,3 (MIC100 of 2-5 μg/ml),Antibacterial activity Staphylococcus aureus (MRSA) [1]: 3 (MIC100 of 3-10 μg/ml)
Cc1nc(-c2ccc(-c3ccc(O)cc3Cl)o2)[nH]c1-c1ccccc1 [Compound 158],1 to 3,1 to 3,,
CCCc1nc(-c2ccc(-c3ccccc3C)o2)[nH]c1C [Compound 100],,,3 (MIC100 of 2-5 μg/ml),Antibacterial activity Staphylococcus aureus (MRSA) [1]: 2 (MIC100 of 11-201 μg/ml)
Cc1nc(-c2ccc(-c3ccccc3O)o2)[nH]c1-c1ccccc1 [Compound 149],11 to 201,20 to 50,,
Cc1nc(-c2ccc(-c3ccc4[nH]ccc4c3)o2)[nH]c1-c1ccccc1 [Compound 144],3 to 10,3 to 10,,

Structure (SMILES),"MIC [2, 4] [µg/mL]",MIC [1] [µg/mL],Antibacterial activity Streptococcus pneumoniae [3],also measured
Cc1nc(-c2ccc(-c3ccc4cc(O)ccc4c3)o2)[nH]c1-c1ccccc1 [Compound 154],11 to 201,11 to 201,,
CCCc1[nH]c(-c2ccc(-c3ccccc3Cl)s2)nc1C [Compound 82],,,,Antibacterial activity Staphylococcus aureus (MRSA) [1]: 3 (MIC100 of 3-10 μg/ml)
Cc1nc(-c2ccc(-c3cccc(O)c3)o2)[nH]c1-c1ccccc1 [Compound 145],11 to 201,20 to 50,,
Cc1nc(-c2ccc(-c3ccc(N4CCN(C)CC4)cc3)o2)[nH]c1-c1ccccc1 [Compound 141],,20 to 50,,
FC(F)(F)c1ccccc1-c1ccc(-c2ncc(-c3ccccc3)[nH]2)o1 [Compound 75],11 to 201,,,
CCCc1nc(-c2ccc(-c3ccccc3OC)o2)[nH]c1C [Compound 102],,,3 (MIC100 of 2-5 μg/ml),
CCCc1[nH]c(-c2ccc(-c3ccc(Cl)cc3Cl)o2)nc1C [Compound 109],,,,Antibacterial activity Staphylococcus aureus (MRSA) [1]: 2 (MIC100 of 11-201 μg/ml)
CCCc1nc(-c2ccc(-c3c(C)cccc3C)o2)[nH]c1C [Compound 103],,,3 (MIC100 of 2-5 μg/ml),Antibacterial activity Staphylococcus aureus (MRSA) [1]: 3 (MIC100 of 3-10 μg/ml)
Cc1nc(-c2ccc(-c3cccc(C(F)(F)F)c3)o2)[nH]c1-c1ccccc1 [Compound 142],1 to 3,1 to 3,,
Brc1ccccc1-c1ccc(-c2ncc(-c3ccccc3)[nH]2)o1 [Compound 83],,,3 (MIC100 of 2-5 μg/ml),
Cc1ccc(-c2nc(-c3nc(-c4ccccc4)c(C)[nH]3)cs2)cc1 [Compound 56],,,3 (MIC100 of 2-5 μg/ml),
Cc1nc(-c2ccc(-c3ccc(O)c(Cl)c3)o2)[nH]c1-c1ccccc1 [Compound 157],3 to 10,11 to 201,,
Cc1ccc(-c2nc(-c3nc(-c4ccccc4)c(C)[nH]3)co2)cc1 [Compound 57],,,3 (MIC100 of 2-5 μg/ml),
Cc1nc(-c2ccc(-c3ccccc3Br)o2)[nH]c1C [Compound 84],,11 to 201,,
Cc1[nH]c(-c2ccc(-c3ccc(F)cc3)s2)nc1-c1ccccc1 [Compound 7],,,3 (MIC100 of 2-5 μg/ml),
Cc1[nH]c(-c2cnn(-c3ccccc3)c2)nc1-c1ccccc1 [Compound 167],,20 to 50,,
